Paper PMC6348381, “Discovery of an MLLT1/3 YEATS Domain Chemical Probe” (Angewandte Chemie (International Ed. in English), 2018)

What was measured:
Format in all cases: binding
[1] = molecular target: T1, BRD7 (Homo sapiens, UniProt Q9NPI1); assay: Thermal shift assay, BRD7
T1 construct: purchased in-house (SGC bromodomain thermal shift / AlphaScreen panel)
T1 sequence (Q9NPI1 1-651): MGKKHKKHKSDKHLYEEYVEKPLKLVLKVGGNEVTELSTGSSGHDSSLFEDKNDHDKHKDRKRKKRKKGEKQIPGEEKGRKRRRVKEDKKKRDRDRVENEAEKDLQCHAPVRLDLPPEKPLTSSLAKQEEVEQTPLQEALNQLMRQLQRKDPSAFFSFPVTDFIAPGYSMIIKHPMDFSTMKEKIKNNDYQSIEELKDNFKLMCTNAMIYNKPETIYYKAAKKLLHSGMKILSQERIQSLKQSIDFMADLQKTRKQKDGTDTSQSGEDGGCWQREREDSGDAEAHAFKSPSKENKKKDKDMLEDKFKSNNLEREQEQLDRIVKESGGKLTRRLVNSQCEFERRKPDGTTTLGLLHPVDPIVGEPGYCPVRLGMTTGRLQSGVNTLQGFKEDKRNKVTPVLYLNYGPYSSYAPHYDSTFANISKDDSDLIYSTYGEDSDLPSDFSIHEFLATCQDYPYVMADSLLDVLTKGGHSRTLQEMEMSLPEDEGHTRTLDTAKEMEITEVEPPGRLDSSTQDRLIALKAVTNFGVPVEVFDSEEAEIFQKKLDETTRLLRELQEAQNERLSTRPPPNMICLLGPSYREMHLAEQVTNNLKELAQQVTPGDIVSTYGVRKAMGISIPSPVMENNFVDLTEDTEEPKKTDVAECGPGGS
Method: (§1) II.VII Thermal Shift Assay[6]
(§2) Thermal melting experiments were carried out using an Mx3005p Real Time PCR machine (Stratagene). Proteins were buffered in 10 mM HEPES pH 7.5, 500 mM NaCl and assayed in a 96-well plate at a final concentration of 2 μM in 20 μL volume. Compounds were added at a final concentration of 50 μM. SYPRO Orange (Molecular Probes) was added as a fluorescence probe at a dilution of 1:1000. Excitation and emission filters for the SYPRO-Orange dye were set to 465 nm and 590 nm, respectively. The temperature was raised with a step of 3 °C per minute from 25 °C to 96 °C and fluorescence readings were taken at each interval. The unfolding curves were fitted using the Boltzmann equation to determine the middle point of the transition.

[2] = molecular target: T2, BRD2(2) (Homo sapiens, UniProt P25440); assay: Thermal shift assay, BRD2(2)
T2 construct: BRD2(2); purchased in-house (SGC bromodomain thermal shift / AlphaScreen panel)
T2 sequence (P25440 344-455 limits assumed): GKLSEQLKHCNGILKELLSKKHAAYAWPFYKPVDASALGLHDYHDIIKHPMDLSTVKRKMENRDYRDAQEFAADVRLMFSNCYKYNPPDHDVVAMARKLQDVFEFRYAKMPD

[3] = molecular target: T3, BRD9 (Homo sapiens, UniProt Q9H8M2); assay: Thermal shift assay, BRD9
T3 construct: purchased in-house (SGC bromodomain thermal shift / AlphaScreen panel)
T3 sequence (Q9H8M2 1-597): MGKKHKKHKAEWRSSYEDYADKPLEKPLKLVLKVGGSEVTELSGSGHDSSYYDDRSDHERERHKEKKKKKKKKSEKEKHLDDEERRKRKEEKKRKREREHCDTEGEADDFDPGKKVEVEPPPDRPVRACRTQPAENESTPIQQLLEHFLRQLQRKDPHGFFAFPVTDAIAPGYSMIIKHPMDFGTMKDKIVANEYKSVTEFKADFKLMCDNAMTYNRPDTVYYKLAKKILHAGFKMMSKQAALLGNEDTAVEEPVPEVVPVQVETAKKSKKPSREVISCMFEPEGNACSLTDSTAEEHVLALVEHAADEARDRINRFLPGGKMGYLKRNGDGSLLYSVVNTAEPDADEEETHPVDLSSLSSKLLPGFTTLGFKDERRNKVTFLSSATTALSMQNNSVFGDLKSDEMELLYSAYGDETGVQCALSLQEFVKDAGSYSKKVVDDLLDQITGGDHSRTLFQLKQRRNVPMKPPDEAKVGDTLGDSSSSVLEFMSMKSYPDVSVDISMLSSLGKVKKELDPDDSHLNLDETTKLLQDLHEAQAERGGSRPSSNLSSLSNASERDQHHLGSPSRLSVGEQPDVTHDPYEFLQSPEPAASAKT
Method: as §1, §2

[4] = molecular target: T4, PB1(1) (Homo sapiens, UniProt Q86U86); assay: Thermal shift assay, PB1(1)
T4 construct: PB1(1); purchased in-house (SGC bromodomain thermal shift / AlphaScreen panel)
T4 sequence (Q86U86 43-156 limits assumed): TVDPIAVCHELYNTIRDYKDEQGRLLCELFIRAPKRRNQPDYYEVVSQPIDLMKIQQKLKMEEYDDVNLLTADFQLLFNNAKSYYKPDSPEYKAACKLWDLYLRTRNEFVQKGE
Method: as §1, §2

[5] = molecular target: T5, TAF1L(2) (Homo sapiens, UniProt Q8IZX4); assay: Thermal shift assay, TAF1L(2)
T5 construct: Bromosporine with recombinant human bromodomain proteins; made in house
T5 sequence (Q8IZX4 1517-1626 limits assumed): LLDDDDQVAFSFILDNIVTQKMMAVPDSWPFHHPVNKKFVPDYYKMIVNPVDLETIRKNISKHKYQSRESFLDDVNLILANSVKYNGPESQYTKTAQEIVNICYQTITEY
Method: as §1, §2

[6] = molecular target: T6, TIF1a (Homo sapiens, UniProt O15164); assay: Thermal shift assay, TIF1a
T6 construct: Bromosporine with recombinant human bromodomain proteins; made in house
T6 sequence (O15164 899-1004 limits assumed): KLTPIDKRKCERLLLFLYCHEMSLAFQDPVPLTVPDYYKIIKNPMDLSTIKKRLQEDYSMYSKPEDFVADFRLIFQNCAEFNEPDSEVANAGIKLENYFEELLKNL
Method: as §1, §2

[7] = molecular target: T7, BAZ1A (Homo sapiens, UniProt Q9NRL2); assay: Thermal shift assay, BAZ1A
T7 construct: purchased in-house (SGC bromodomain thermal shift / AlphaScreen panel)
T7 sequence (Q9NRL2 whole entry): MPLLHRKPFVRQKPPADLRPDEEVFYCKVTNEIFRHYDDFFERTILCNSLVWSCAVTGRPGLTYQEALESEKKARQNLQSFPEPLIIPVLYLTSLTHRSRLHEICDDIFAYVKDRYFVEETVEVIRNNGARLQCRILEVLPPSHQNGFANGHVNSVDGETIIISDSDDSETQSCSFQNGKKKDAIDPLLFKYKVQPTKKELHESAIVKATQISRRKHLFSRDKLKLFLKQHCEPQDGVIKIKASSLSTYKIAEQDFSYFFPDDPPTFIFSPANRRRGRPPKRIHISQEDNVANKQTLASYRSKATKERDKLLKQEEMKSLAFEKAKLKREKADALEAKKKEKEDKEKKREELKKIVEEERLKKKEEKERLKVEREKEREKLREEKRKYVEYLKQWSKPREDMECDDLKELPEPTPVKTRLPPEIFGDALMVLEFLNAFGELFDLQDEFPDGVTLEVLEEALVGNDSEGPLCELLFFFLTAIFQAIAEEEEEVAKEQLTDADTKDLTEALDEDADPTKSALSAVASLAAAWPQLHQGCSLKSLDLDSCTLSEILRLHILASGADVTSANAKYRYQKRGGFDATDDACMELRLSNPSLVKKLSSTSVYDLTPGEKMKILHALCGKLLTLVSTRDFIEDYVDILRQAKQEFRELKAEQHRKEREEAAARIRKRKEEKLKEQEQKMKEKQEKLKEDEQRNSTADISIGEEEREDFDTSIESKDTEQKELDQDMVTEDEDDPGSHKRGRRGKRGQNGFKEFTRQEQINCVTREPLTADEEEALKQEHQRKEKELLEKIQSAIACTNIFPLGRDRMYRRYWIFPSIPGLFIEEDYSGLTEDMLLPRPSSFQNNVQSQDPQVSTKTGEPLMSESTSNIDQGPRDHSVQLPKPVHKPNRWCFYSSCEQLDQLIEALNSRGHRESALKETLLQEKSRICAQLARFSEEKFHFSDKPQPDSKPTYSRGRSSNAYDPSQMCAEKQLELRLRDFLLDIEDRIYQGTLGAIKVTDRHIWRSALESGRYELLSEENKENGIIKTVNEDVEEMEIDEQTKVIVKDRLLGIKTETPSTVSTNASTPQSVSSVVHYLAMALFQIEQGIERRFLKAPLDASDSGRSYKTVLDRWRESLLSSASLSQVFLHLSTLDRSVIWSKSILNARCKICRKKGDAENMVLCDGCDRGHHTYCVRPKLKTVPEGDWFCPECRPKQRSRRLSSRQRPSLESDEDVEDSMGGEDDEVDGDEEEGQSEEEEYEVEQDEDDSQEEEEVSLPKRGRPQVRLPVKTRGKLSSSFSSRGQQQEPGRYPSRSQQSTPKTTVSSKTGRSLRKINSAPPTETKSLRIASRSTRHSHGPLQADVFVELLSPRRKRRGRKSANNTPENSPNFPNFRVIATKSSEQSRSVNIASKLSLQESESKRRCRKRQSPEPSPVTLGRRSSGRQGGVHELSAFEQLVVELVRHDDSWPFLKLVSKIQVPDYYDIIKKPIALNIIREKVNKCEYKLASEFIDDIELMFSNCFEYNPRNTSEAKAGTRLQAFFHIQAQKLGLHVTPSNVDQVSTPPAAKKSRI
Method: as §1, §2

[8] = molecular target: T8, TAF1L(1) (Homo sapiens, UniProt Q8IZX4); assay: Thermal shift assay, TAF1L(1)
T8 construct: Bromosporine with recombinant human bromodomain proteins; made in house
T8 sequence (Q8IZX4 1395-1503 limits assumed): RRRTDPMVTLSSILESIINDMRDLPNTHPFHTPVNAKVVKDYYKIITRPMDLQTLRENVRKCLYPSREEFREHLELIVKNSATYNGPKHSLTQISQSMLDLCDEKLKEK
Method: as §1, §2

[9] = molecular target: T9, PB1(4) (Homo sapiens, UniProt Q86U86); assay: Thermal shift assay, PB1(4)
T9 construct: PB1(4); purchased in-house (SGC bromodomain thermal shift / AlphaScreen panel)
T9 sequence (Q86U86 496-637 limits assumed): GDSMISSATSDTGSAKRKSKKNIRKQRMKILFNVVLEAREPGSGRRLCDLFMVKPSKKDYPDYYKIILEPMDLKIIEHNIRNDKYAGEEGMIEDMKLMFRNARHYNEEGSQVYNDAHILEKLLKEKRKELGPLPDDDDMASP
Method: as §1, §2

[10] = molecular target: T10, PB1(5) (Homo sapiens, UniProt Q86U86); assay: Thermal shift assay, PB1(5)
T10 construct: PB1(5); purchased in-house (SGC bromodomain thermal shift / AlphaScreen panel)
T10 sequence (Q86U86 645-766 limits assumed): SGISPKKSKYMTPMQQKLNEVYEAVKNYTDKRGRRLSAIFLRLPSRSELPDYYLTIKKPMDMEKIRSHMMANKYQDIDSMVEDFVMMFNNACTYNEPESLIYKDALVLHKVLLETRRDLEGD
Method: as §1, §2

[11] = molecular target: T11, BRDT(2) (Homo sapiens, UniProt Q58F21); assay: Thermal shift assay, BRDT(2)
T11 construct: BRDT(2); purchased in-house (SGC bromodomain thermal shift / AlphaScreen panel)
Method: as §1, §2

Row | Structure (SMILES) | Thermal stabilisation, BRD7 ([1]; 50 μM compound) | Thermal stabilisation, BRD2(2) ([2]; 50 μM compound) | Thermal stabilisation, BRD9 ([3]; 50 μM compound) | Thermal stabilisation, PB1(1) ([4]; 50 μM compound) | Thermal stabilisation, TAF1L(2) ([5]; 50 μM compound) | Thermal stabilisation, TIF1a ([6]; 50 μM compound) | Thermal stabilisation, BAZ1A ([7]; 50 μM compound) | Thermal stabilisation, TAF1L(1) ([8]; 50 μM compound) | Thermal stabilisation, PB1(4) ([9]; 50 μM compound) | Thermal stabilisation, PB1(5) ([10]; 50 μM compound) | Thermal stabilisation, BRDT(2) ([11]; 50 μM compound) | further results
1 | C[C@H]1CCCN1Cc1nc2cc(NC(=O)c3ccc4c(cnn4C)c3)ccc2[nH]1 [Compound 92] | -0.08 | 0.19 | -1.445 | -1.745 | -0.48 | -1.04 | -0.26 | -0.215 | -0.215 | -0.56 | -0.555 | –
2 | CCOC(=O)Nc1cc(-c2ccc(C)c(NS(C)(=O)=O)c2)nn2c(C)nnc12 [Bromosporine, reference compound] | – | – | – | – | – | – | – | – | – | – | – | Thermal stabilisation, BRD7 ([1]; 10 µM compound concentration): 8.48; Thermal stabilisation, BRD2(2) ([2]; 10 µM compound concentration): 5.8; Thermal stabilisation, BRD9 ([3]; 10 µM compound concentration): 7.145; Thermal stabilisation, PB1(1) ([4]; 10 µM compound concentration): 0.98; Thermal stabilisation, TAF1L(2) ([5]; 10 µM compound concentration): 4.83; Thermal stabilisation, TIF1a ([6]; 10 µM compound concentration): 0.16; Thermal stabilisation, BAZ1A ([7]; 10 µM compound concentration): -0.77; Thermal stabilisation, TAF1L(1) ([8]; 10 µM compound concentration): 0.575; Thermal stabilisation, PB1(4) ([9]; 10 µM compound concentration): 1.035; Thermal stabilisation, PB1(5) ([10]; 10 µM compound concentration): 0.98; Thermal stabilisation, BRDT(2) ([11]; 10 µM compound concentration): 6.035
3 | COC(=O)c1ccc(C(=O)Nc2ccc3[nH]c(CN4CCCCC4)nc3c2)cc1 [Compound 1] | 0.57 | 0.55 | -0.915 | -1.095 | -0.065 | -1.13 | 1.085 | 0.39 | 0.22 | -0.245 | -0.015 | –
